From patent US20220380331A1, “TREATMENT OF CONDITIONS OF THE NERVOUS SYSTEM” (priority 2019, published 2022)

Assays:
PNN-HEK293 cells = test: Immunocytochemistry of PNN formation (WFA) with PNNi analogues; format: cell-based, human; settings: 0.5 mM and 1 mM, 3 days in vitro
Protocol: To compare the efficacy of PNNi, JD009, and JD013 in reducing PNN formation, immunocytochemistry was conducted using the N-acetylgalactosamine-binding lectin WFA to label PNNs. PNN-HEK293 cells were exposed to 0.5 mM and 1 mM of the compounds for 3 days in vitro. […] Quantification of WFA fluorescence intensity per cell was derived in matched regions of interest (ROI) and normalising overall WFA fluorescence intensity to cell number.

[1] = Solubility in aqueous solution; format: physicochemical
Text: The inventors hypothesised that since the hydroxyl functional groups required for activity were not altered when designing the PNNi analogues, they should retain the capacity to potently reduce PNNs.

Row | solubility relative to PNNi [1] | Compound | PNN morphology and expression (WFA fluorescence intensity per cell) (PNN-HEK293 cells)
1 | increased solubility | CN(C)Cc1cc(=O)oc2cc(O)ccc12 [JD009] | altered PNN expression
2 | increased solubility | O=c1cc(CN2CCOCC2)c2ccc(O)cc2o1 [JD013, 7-hydroxy-4-[(morpholin-4-yl)methyl]-2H-1-benzopyran-2-one] | altered PNN expression
